Laboratory results published in article PMC11233931, “Remodeling tumor‐associated macrophage for anti‐cancer effects by rational design of irreversible inhibition of mitogen‐activated protein kinase‐activated protein kinase 2” (MedComm, 2024).

Legend:
Assay in all cases: Eurofins kinase selectivity profile against 380 other human recombinant kinases (Table S2)
Type in all cases: biochemical
[1] = target: T1, 380 human recombinant protein kinases (Homo sapiens, UniProt O43353); conditions: RIPK2(h), read-out: Inhibition rate
T1 construct: purchased Eurofins (Celle Lévescault)
Description: (§1) Subsequently, to ascertain whether the high potency of compound 11 was specific for MK2, an additional 380 human recombinant protein kinases were screened.
(§2) To assess the impact of various compounds on MK2 kinase activity, we utilized the ADP‐Glo Assay Kit (Promega) following the manufacturer's instructions. Luminescence measurements were taken using a SpectraMax Paradigm reader. The inhibition percentage was calculated using the following formula: ((specific signalDMSO control − specific signal inhibitor)/(specific signalDMSO control)) × 100%. The IC50 values were determined employing dose–response curve fitting via Prism (Graph Pad). Additionally, Eurofins company (Celle Lévescault) conducted the analysis on compound 11’s inhibitory activity against 380 other human recombinant kinases at various concentrations.

[2] = target: T2, 380 human recombinant protein kinases (Homo sapiens, UniProt O95835); conditions: LATS1(h), read-out: Inhibition rate
T2 construct: purchased Eurofins (Celle Lévescault)
T2 sequence (O95835 1-1130): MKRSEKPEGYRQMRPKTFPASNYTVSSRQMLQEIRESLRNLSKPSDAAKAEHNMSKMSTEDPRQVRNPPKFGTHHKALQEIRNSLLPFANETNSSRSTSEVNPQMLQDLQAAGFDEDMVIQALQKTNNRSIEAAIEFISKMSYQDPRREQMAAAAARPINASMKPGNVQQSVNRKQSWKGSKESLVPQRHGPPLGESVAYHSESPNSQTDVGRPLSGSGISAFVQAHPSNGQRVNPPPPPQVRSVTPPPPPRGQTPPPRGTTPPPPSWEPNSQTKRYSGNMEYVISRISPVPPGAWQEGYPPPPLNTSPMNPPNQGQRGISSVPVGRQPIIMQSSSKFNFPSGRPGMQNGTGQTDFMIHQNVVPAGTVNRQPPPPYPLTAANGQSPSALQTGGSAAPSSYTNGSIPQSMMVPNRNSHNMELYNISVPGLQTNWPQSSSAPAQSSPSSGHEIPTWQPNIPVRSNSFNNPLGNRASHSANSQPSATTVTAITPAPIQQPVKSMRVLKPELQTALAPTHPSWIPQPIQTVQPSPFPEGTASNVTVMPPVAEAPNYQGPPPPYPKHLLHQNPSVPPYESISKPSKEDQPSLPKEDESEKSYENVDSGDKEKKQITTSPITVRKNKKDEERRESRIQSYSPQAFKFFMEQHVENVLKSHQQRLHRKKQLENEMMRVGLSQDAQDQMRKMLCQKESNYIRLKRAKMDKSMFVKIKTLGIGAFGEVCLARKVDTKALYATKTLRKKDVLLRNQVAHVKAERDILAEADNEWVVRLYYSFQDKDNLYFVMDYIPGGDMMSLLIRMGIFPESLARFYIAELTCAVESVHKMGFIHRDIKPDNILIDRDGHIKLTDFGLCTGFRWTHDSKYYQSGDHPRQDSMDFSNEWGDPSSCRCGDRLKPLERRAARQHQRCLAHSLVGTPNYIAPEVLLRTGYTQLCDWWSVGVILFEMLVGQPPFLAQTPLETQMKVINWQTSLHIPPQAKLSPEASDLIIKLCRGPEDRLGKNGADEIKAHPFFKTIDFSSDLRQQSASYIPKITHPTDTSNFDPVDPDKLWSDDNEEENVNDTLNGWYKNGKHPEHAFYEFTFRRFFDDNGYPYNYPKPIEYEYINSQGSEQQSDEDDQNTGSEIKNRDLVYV
Description: as §1, §2

[3] = target: T3, 380 human recombinant protein kinases (Homo sapiens, UniProt P07333); conditions: Fms(h), read-out: Inhibition rate
T3 construct: purchased Eurofins (Celle Lévescault)
T3 sequence (P07333 20-972): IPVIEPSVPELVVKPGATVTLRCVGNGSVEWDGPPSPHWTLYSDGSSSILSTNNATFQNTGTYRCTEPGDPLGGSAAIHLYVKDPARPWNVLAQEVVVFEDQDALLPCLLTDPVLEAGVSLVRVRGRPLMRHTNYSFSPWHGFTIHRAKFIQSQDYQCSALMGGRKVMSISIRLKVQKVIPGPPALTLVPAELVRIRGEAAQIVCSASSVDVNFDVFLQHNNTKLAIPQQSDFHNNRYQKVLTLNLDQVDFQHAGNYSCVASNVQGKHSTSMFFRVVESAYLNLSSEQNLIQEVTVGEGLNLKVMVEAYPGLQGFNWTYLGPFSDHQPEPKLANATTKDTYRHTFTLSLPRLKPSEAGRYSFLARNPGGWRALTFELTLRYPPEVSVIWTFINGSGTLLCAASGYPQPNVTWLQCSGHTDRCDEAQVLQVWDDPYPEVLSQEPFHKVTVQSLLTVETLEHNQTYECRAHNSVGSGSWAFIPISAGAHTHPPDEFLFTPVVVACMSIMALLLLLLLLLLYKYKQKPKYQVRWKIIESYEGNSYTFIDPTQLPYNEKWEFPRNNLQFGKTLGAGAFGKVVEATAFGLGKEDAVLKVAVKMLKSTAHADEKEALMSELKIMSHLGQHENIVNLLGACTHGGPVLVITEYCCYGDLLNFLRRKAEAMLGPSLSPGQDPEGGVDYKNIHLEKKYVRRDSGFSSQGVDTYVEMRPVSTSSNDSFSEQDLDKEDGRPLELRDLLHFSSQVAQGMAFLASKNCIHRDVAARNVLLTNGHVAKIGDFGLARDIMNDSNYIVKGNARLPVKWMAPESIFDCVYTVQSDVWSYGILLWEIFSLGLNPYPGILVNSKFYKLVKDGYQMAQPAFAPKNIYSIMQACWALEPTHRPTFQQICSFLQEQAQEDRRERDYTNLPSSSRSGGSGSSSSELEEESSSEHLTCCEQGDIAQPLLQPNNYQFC
Description: as §1, §2

[4] = target: T4, 380 human recombinant protein kinases (Homo sapiens, UniProt P21802); conditions: FGFR2(h), read-out: Inhibition rate
T4 construct: purchased Eurofins (Celle Lévescault)
Description: as §1, §2

[5] = target: T5, 380 human recombinant protein kinases (Homo sapiens, UniProt P31751); conditions: PKBβ(h), read-out: Inhibition rate
T5 construct: purchased Eurofins (Celle Lévescault)
Description: as §1, §2

[6] = target: T6, 380 human recombinant protein kinases (Homo sapiens, UniProt P36507); conditions: MEK2(h), read-out: Inhibition rate
T6 construct: purchased Eurofins (Celle Lévescault)
T6 sequence (P36507 whole entry): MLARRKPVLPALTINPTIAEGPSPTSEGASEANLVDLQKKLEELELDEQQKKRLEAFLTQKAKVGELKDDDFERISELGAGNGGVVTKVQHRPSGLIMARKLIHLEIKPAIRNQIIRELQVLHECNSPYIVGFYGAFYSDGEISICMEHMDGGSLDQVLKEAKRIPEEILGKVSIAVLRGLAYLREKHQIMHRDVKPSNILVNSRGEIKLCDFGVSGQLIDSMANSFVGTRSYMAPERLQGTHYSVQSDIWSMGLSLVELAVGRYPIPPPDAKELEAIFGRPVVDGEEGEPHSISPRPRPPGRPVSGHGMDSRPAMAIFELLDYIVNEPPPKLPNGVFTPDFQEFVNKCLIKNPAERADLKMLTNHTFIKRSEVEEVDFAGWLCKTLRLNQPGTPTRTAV
Description: as §1, §2

[7] = target: T7, 380 human recombinant protein kinases (Homo sapiens, UniProt P43250); conditions: GRK6(h), read-out: Inhibition rate
T7 construct: purchased Eurofins (Celle Lévescault)
Description: as §1, §2

[8] = target: T8, 380 human recombinant protein kinases (Homo sapiens, UniProt Q13153); conditions: PAK1(h), read-out: Inhibition rate
T8 construct: purchased Eurofins (Celle Lévescault)
T8 sequence (Q13153 whole entry): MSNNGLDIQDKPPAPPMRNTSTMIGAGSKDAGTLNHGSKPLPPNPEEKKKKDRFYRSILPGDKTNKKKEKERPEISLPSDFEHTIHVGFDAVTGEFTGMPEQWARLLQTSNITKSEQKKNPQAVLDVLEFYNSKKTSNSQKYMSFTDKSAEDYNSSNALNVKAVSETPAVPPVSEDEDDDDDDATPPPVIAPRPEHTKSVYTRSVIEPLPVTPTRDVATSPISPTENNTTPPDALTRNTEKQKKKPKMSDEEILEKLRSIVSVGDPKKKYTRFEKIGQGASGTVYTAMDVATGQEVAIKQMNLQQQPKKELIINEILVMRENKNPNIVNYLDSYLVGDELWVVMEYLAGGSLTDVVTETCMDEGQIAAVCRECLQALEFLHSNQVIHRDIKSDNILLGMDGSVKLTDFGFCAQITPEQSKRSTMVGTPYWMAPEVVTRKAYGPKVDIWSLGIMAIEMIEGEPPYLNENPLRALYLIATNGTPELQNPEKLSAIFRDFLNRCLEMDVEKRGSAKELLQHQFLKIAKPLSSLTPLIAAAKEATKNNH
Description: as §1, §2

[9] = target: T9, 380 human recombinant protein kinases (Homo sapiens, UniProt Q13315); conditions: ATM(h), read-out: Inhibition rate (%)
T9 construct: purchased Eurofins (Celle Lévescault)
T9 sequence (Q13315 whole entry): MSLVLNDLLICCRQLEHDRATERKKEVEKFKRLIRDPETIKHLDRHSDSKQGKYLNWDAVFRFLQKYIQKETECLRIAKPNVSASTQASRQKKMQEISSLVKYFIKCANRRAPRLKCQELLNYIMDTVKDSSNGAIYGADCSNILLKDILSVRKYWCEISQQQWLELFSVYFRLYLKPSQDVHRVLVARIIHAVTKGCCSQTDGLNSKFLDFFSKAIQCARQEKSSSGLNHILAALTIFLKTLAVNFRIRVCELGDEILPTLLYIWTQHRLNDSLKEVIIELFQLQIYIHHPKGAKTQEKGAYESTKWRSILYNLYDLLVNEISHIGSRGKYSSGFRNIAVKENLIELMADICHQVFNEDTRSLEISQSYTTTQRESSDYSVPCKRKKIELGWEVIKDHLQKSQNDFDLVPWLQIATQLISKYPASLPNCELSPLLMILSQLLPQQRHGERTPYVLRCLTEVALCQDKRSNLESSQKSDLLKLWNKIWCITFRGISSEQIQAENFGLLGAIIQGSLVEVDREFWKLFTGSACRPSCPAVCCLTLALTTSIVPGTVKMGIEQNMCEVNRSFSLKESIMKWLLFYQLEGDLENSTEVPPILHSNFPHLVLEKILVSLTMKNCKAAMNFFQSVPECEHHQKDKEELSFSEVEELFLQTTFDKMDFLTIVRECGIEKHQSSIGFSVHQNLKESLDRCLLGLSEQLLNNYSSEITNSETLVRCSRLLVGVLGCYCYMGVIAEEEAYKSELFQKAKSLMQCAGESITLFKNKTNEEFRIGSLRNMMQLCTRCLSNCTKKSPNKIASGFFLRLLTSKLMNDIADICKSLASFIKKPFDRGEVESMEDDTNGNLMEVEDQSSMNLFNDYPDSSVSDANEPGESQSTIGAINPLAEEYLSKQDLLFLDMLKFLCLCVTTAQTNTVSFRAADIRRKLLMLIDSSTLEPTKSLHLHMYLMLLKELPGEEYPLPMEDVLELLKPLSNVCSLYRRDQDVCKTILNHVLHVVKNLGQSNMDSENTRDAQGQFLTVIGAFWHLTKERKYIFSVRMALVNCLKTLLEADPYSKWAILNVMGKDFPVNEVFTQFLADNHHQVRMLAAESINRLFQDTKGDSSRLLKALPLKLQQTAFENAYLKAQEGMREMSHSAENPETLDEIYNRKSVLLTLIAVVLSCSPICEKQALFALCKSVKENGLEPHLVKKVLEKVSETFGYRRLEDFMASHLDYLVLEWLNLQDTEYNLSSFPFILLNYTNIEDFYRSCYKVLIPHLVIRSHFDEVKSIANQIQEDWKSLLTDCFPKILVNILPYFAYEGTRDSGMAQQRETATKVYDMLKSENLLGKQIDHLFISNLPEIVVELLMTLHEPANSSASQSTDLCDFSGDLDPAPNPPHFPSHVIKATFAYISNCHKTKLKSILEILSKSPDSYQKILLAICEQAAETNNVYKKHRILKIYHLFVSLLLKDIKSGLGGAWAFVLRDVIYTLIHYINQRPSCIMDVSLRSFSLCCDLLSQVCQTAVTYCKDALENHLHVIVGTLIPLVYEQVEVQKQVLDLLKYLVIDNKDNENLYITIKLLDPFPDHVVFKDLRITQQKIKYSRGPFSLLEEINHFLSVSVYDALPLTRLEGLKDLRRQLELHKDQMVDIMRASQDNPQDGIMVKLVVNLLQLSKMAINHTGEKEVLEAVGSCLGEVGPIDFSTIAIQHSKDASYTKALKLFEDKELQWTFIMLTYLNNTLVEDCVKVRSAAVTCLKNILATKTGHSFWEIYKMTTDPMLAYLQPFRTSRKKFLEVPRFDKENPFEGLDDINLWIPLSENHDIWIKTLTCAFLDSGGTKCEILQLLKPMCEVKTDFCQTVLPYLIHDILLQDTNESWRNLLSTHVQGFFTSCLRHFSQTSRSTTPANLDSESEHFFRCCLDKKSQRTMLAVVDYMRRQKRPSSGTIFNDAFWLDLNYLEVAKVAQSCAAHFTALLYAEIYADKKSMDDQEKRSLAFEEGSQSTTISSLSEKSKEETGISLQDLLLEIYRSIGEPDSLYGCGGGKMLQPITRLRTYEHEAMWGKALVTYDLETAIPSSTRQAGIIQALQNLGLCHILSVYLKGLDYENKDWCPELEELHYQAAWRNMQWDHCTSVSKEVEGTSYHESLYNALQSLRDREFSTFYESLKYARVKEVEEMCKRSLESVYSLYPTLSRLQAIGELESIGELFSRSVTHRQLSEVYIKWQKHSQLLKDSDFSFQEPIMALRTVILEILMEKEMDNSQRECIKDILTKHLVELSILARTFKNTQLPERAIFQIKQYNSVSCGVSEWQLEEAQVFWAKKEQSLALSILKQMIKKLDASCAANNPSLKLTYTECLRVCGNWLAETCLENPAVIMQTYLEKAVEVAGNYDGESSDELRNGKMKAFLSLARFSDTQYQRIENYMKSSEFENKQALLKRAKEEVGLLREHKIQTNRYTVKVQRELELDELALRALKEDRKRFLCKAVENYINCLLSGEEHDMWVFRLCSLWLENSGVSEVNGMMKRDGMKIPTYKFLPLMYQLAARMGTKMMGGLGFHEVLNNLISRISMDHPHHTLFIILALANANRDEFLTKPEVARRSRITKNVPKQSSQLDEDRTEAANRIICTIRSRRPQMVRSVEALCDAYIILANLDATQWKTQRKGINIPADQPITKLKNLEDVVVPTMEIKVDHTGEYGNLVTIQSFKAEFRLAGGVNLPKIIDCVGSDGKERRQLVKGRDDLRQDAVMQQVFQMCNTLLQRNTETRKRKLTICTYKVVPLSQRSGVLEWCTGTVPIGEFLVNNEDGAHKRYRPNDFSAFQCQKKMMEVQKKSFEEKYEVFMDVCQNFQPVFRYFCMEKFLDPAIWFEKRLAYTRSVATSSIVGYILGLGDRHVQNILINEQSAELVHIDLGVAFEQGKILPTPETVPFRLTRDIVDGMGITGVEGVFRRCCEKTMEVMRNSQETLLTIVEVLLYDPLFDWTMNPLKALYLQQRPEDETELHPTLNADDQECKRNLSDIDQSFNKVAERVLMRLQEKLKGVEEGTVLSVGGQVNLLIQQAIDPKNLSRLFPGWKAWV
Description: as §1, §2

[10] = target: T10, 380 human recombinant protein kinases (Homo sapiens, UniProt Q13555); conditions: CaMKIIγ(h), read-out: Inhibition rate
T10 construct: purchased Eurofins (Celle Lévescault)
Description: as §1, §2

[11] = target: T11, 380 human recombinant protein kinases (Homo sapiens, UniProt Q8IY84); conditions: NIM1(h), read-out: Inhibition rate
T11 construct: purchased Eurofins (Celle Lévescault)
Description: as §1, §2

[12] = target: T12, 380 human recombinant protein kinases (Homo sapiens, UniProt Q8TDR2); conditions: CLIK1(h), read-out: Inhibition rate
T12 construct: purchased Eurofins (Celle Lévescault)
Description: as §1, §2

[13] = target: T13, 380 human recombinant protein kinases (Homo sapiens, UniProt Q96J92); conditions: WNK4(h), read-out: Inhibition rate (%)
T13 construct: purchased Eurofins (Celle Lévescault)
Description: as §1, §2

SMILES: C=CC(=O)Nc1cc(-c2cc(-c3cc4c([nH]3)CCNC4=O)ccn2)ccc1OC(F)(F)F [compound 11]
- inhibition at 0.01 µM ([1]; 10 nM): 11%
- inhibition at 0.1 µM ([1]; 100 nM): 46%
- inhibition at 1 µM ([1]; 1000 nM): 88%
- inhibition at 0.01 µM ([2]; 10 nM): -11%
- inhibition at 0.1 µM ([2]; 100 nM): -3%
- inhibition at 1 µM ([2]; 1000 nM): 1%
- inhibition at 0.01 µM ([3]; 10 nM): -8%
- inhibition at 0.1 µM ([3]; 100 nM): -9%
- inhibition at 1 µM ([3]; 1000 nM): -6%
- inhibition at 0.01 µM ([4]; 10 nM): -22%
- inhibition at 0.1 µM ([4]; 100 nM): -12%
- inhibition at 1 µM ([4]; 1000 nM): -2%
- inhibition at 0.01 µM ([5]; 10 nM): 1%
- inhibition at 0.1 µM ([5]; 100 nM): 3%
- inhibition at 1 µM ([5]; 1000 nM): 0%
- inhibition at 0.01 µM ([6]; 10 nM): -4%
- inhibition at 0.1 µM ([6]; 100 nM): 4%
- inhibition at 1 µM ([6]; 1000 nM): 6%
- inhibition at 0.01 µM ([7]; 10 nM): -1%
- inhibition at 0.1 µM ([7]; 100 nM): -1%
- inhibition at 1 µM ([7]; 1000 nM): 1%
- inhibition at 0.01 µM ([8]; 10 nM): -10%
- inhibition at 0.1 µM ([8]; 100 nM): -7%
- inhibition at 1 µM ([8]; 1000 nM): -5%
- inhibition at 0.01 µM ([9]; 10 nM): -3%
- inhibition at 0.1 µM ([9]; 100 nM): -6%
- inhibition at 1 µM ([9]; 1000 nM): -9%
- inhibition at 0.01 µM ([10]; 10 nM): -5%
- inhibition at 0.1 µM ([10]; 100 nM): 6%
- inhibition at 1 µM ([10]; 1000 nM): 18%
- inhibition at 0.01 µM ([11]; 10 nM): -4%
- inhibition at 0.1 µM ([11]; 100 nM): -7%
- inhibition at 1 µM ([11]; 1000 nM): -3%
- inhibition at 0.01 µM ([12]; 10 nM): 5%
- inhibition at 0.1 µM ([12]; 100 nM): 33%
- inhibition at 1 µM ([12]; 1000 nM): 65%
- inhibition at 0.01 µM ([13]; 10 nM): 6%
- inhibition at 0.1 µM ([13]; 100 nM): 6%
- inhibition at 1 µM ([13]; 1000 nM): 3%
